Data on two compounds can be found in EP1242012B1, “IMPROVED TRANSDERMAL CONTRACEPTIVE DELIVERY SYSTEM AND PROCESS” (priority 1999, dated 2001).

The structures appear in SMILES notation.

For series [1] the following is noted: human, in vivo, topical or ocular; cited from earlier work.
The conditions of series [2]: human, in vivo, topical or ocular. The text has this:
The total duration of study for each subject participating in this study is 5 months. It consists of one base-line period followed by three treatment periods and one recovery period. Each period is one menstrual cycle of the person subjects.
Subjects attending this 5 month-long study were randomly divided and sequentially admitted into three study groups. Group A, B and C subjects received one piece of 7.5 cm^2, 10.0 cm^2 and 12.5 cm^2 TCDS patch weekly, respectively, for three consecutive weeks I each of the three treatment periods. During the baseline and recovery periods, all the subjects received only the placebo patch of the corresponding size for three consecutive weeks. During the fourth week of each study period, no patch was worn by the subjects in any treatment groups.
According to the blood sampling schedule, a total of 57 blood samples (about 10 ml per sample) were taken from each subject during the 5-month study. During the three treatment cycles, 15 samples were taken through out the 21 days of patch wearing period. At the end of the third treatment cycle, 5 additional blood samples were taken during the 24 hours post patch removal which allows the elimination pharmacokinetics of drugs to be studied. […]
Serum level of levonorgestrel (LNG), ethinyl estradiol (EE) as well as luteinizing hormone (LH), progesterone (P) and estradiol (E2) were analyzed by radio-immunassay methods.

For the compound `C#C[C@]1(O)CC[C@H]2[C@@H]3CCC4=CC(=O)CC[C@@H]4[C@H]3CC[C@@]21CC` [levonorgestrel], the “levels achieved by the system described in the '956 patent” value in series [1] was 0.4 ng/mL.

Take `C#C[C@]1(O)CC[C@H]2[C@@H]3CCc4cc(O)ccc4[C@H]3CC[C@@]21C` [ethinyl estradiol]: in series [2], the “levels achieved by the TCDS formulation of the present invention” value lay in the range of 0.035 to 0.075 ng/mL.
